According to article PMC7845594, “Novel Immune Modulators Enhance Caenorhabditis elegans Resistance to Multiple Pathogens” (mSphere, 2021):

System: glp-4(bn2) worms reared on RNAi, exposed to P. aeruginosa PA14
Experiment: P. aeruginosa liquid killing assay after RNAi knockdown
Assay type: in vivo, Caenorhabditis elegans
Settings: for Rescue in liquid killing after RNAi of a panel of phosphatases, kinases, transcription factors and most upregulated genes: Fig S4A; for Rescue in liquid killing after mdt-15(RNAi): P. aeruginosa PA14, LK56 at 32 µM
Description: Based on the presence of effectors for well-known innate immune pathways in the transcriptional profiles of C. elegans exposed to LK molecules, we predicted that the compounds were acting through one or more of these pathways, despite the low levels of reporter activation. To test this, RNAi was used to knock down daf-16/FOXO, elt-2/GATA, pmk-1/p38 MAPK, atf-7/ATF7, or skn-1/Nrf2. Sterile, young adult glp-4(bn2) worms were then exposed to P. aeruginosa under liquid killing conditions in the presence of either DMSO or one of the immunostimulatory compounds.
RNAi conditions measured at different time points are represented by different graphs within the same panel. […] At least six wells, containing 20 worms each, were used per biological replicate to determine survival for each condition, and averages from at least three biological replicates are shown. *, P < 0.05; **, P < 0.01; ***, P < 0.001. P values were calculated using Student’s t test. Error bars represent standard error of the mean.
(A) Sterile, young adult glp-4(bn2) worms were reared on RNAi targeting irid-28, F38B2.4, T24B8.5, mex-5, Y105C5B.15, comt-4, or empty vector and then exposed to P. aeruginosa in the liquid killing assay. (B) Sterile, young adult glp-4(bn2) worms were reared on RNAi targeting met-2, osm-8, rde-4, oga-1, daf-2, lin-35, glp-1, dpy-10, or dpy-9 and then exposed to P. aeruginosa in the liquid killing assay. These genes were chosen using WormEXP with the criterion that gene expression after mutation would be similar (in terms of upregulation and downregulation) to exposure to LK56. Endpoints were collected at different times (to allow DMSO-treated worms to be approximately 30 to 50% dead). Assays collected at different time points are shown on different graphs. […] For each experiment, three biological replicates were performed, with each replicate comprised of six wells with 20 worms/well. Error bars represent standard error of the mean. *, P < 0.05; **, P < 0.01; ***, P < 0.001. P values were calculated using Student’s t test. Download FIG S4, PDF file, 0.2 MB.
Due to its strong rescue and unique transcriptional profile, we also created a panel of genes to test for LK56. […] This effect was specific, since mdt-15(RNAi) had no effect on the ability of LK35 or LK38 to rescue in this assay (Fig. 7B). Importantly, MDT-15 was also required for LK56-mediated rescue in E. faecalis and S. aureus pathogenesis assays (Fig. 7C).
FIG 7 Rescue from pathogens by LK56 requires […]. (A and B) Young adult glp-4(bn2) worms reared on vector or mdt-15(RNAi) were incubated with P. aeruginosa strain PA14 in the liquid killing assay with or without LK56 at 32 µM. (B) Young adult glp-4(bn2) worms reared on vector or mdt-15(RNAi) were exposed to P. aeruginosa PA14 in the liquid killing assay in the presence of LK35, LK38, or DMSO. (C) Young adult glp-4(bn2) worms reared on vector or mdt-15(RNAi) and then exposed to E. faecalis or S. aureus in liquid-based assays in the presence or absence of LK56 at 32 µM. (D) Young adult glp-4(bn2) worms reared on vector, nhr-49(RNAi), or nhr-45(RNAi) were incubated with P. aeruginosa PA14 in the liquid killing assay with or without LK56 at 32 µM. Each replicate included at least six wells, with approximately 20 worms per well. The data shown are mean values from a representative replicate. *, P < 0.05; **, P < 0.01; ***, P < 0.001. P values were calculated using Student’s t test. Error bars represent the standard error of the mean. At least three biological replicates were performed.
MDT-15 partners with at least two different nuclear hormone receptors, NHR-45 and NHR-49, to regulate gene expression.

Structure (SMILES) | Rescue in liquid killing after RNAi of a panel of phosphatases, kinases, transcription factors and most upregulated genes | Rescue in liquid killing after mdt-15(RNAi) | Rescue in liquid killing after nhr-49(RNAi) (P. aeruginosa PA14, 32 µM)
CN(C)/N=N/c1ccc(-c2cn(Cc3ccccc3)cn2)cc1 [LK38] | rescue was unchanged | no effect | 
CNC(=O)Oc1c(Br)cc2sc(=O)oc2c1Br [LK34] | rescue was unchanged |  | 
CCN(CC)/N=N/c1ccc(C(=O)O)cc1 [LK35] | rescue was unchanged | no effect | 
O=c1cc(CNc2ccc(Br)cc2)nc2sccn12 [LK56] |  | completely abolish LK56-dependent rescue | abolished compound rescue
